According to patent US5495005A, “Synthesis and pharmacological activity of a series of novel xanthone derivatives” (National Science Council, priority 1993, dated 1996):

Legend:
[1] = tested on: anesthetized rats; test: blood pressure and heart beat of anesthetized rats after i.v. injection; type: in vivo; conditions: for blood pressure of anesthetized rats: anesthetized rat
[2] = tested on: rat's thoracic aorta; test: contraction of rat's thoracic aorta induced by calcium/high potassium or norepinephrine
[3] = tested on: rabbit platelet; test: collagen-induced aggregation of washed rabbit platelets (turbidimetry); type: cell-based; conditions: comparison with norathyrol
Method: It is known that ADP, arachidonic acid, PAF and collagen treatment will lead to the aggregation of rabbit platelet. […] Using 10 μg/ml of collagen as inducer of platelet aggregation, tile replacement of the methoxy or hydroxy group on the C-3 by the 3-propylamino-2-hydroxypropoxyl group increases the inhibitory effect on platelet aggregation. The reaction mechanisms of 1,3,6,7,-tetraoxygenated xanthones and 3,4-dihydroxygenated xanthone inhibit the formation of A2 -thromboxane and the degradation of phosphoinositide, and inhibit the activity of A2 -thromboxane, respectively.
Based on the method of Teng et. al. (Ouyang, C. Biochem. Biophys. Acta. 1987, 924:375), rabbit platelets were washed with platelet-rich plasma which was adjusted with EDTA for anti-aggregation. Counted by Coulter Counter (model, ZM), the platelets were adjusted to a density of 4.5×10^8 platelets/ml by Tyrode's solution which contains 136.8 mM NaCl, 2.8 mM KCl, 1.0 mM CaCl2 and 11.2 mM glucose, and 0. 35% bovine serum albumin. Platelets were agitated at a speed of 1200 rpm to form a suspension. All xanthone derivatives tested were dissolved in DMSO. The concentration of DMSO was limited to 0.5% to prevent its interference to the aggregation reaction. The aggregation was assayed by O'Brin's turbidometer. To determine the degree of aggregation, the absorbance of platelet suspension was referred as 0% aggregation and that of the platelet […] was used for 100%. Lumiaggregometer (Chromo-Log Co. USA) was used to carry out the aggregation assay.

[4] = tested on: platelet; conditions: literature report; cited from earlier work
[5] = tested on: myocardiac cells; conditions: literature report; cited from earlier work
[6] = tested on: peripheral blood vessels; conditions: literature report; cited from earlier work
[7] = tested on: atrioventricular conduction; conditions: literature report; cited from earlier work
[8] = target: angiotension I converting enzyme; test: inhibition of angiotension I converting enzyme; type: biochemical; conditions: read-out: IC50 toward angiotension I converting enzyme
Sequence of angiotension I converting enzyme (P12821 30-1306): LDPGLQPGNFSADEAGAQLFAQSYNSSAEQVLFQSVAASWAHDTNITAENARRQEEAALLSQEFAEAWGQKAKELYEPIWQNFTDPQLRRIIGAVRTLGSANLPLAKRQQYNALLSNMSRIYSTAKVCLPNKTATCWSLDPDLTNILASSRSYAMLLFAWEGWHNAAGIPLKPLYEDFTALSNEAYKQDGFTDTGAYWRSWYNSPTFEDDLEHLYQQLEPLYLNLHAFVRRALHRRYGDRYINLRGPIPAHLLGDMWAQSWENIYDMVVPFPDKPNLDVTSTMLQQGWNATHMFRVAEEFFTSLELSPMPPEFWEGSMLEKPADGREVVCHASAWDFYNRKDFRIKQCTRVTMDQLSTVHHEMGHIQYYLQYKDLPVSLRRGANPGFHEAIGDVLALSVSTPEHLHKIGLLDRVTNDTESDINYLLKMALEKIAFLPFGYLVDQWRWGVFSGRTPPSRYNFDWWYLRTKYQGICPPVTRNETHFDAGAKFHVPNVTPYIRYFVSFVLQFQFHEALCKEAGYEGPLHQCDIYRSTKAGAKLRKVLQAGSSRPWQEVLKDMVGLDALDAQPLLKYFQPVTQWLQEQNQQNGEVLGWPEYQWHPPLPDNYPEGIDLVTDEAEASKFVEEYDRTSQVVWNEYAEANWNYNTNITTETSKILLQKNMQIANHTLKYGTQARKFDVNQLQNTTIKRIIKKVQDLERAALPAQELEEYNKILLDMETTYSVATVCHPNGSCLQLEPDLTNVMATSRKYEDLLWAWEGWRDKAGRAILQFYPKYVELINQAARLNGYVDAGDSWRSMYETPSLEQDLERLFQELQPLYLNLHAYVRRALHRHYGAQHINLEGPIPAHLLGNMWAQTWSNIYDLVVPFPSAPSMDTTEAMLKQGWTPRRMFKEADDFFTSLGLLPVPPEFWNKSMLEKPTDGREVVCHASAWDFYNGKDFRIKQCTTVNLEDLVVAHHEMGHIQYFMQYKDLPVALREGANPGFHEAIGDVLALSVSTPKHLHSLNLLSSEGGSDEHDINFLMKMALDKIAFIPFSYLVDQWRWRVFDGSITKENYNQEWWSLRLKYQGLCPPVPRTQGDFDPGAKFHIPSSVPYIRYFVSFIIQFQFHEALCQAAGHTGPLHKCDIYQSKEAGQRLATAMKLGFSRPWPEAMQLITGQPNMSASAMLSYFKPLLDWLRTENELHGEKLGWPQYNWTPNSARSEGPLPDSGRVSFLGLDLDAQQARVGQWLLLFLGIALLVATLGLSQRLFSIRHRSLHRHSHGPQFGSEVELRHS

Compound: CC(C)NCC(O)COc1ccc2c(=O)c3ccccc3oc2c1 (stereo not drawn) [3[3-(Isopropylamino)-2-hydroxypropoxyl)] xanthone]
- heart beat of the anesthetized rat [1]: slow down the heart beat
- blood pressure of anesthetized rats [1]: significantly reduce the blood pressure
- inhibition of contraction of rat's thoracic aorta induced by high potassium ([2]; 10^-4 M, potassium ion 100 mM): significantly inhibit the contraction

Compound: CCCNCC(O)COc1ccc2c(=O)c3ccccc3oc2c1 (stereo not drawn) [3 [3-(propylamino)-2-hydroxypropoxy]xanthone]
- heart beat of the anesthetized rat [1]: slow down the heart beat
- blood pressure of anesthetized rats [1]: significantly reduce the blood pressure

Compound: O=c1c2ccccc2oc2cc(O)c(O)cc12 [2,3-dihydroxyxanthone, 2,3-Dihydroxyxanthone]
- blood pressure of anesthetized rats [1]: significantly lowered the blood pressure
- inhibition of muscle contraction in rat's thoracic aorta induced by calcium ion at high potassium ([2]; 100 μg/ml, 1.9 mM calcium ion, 80 mM potassium ion): significantly inhibit
- inhibition of phasic or tonic muscle contraction induced by norepinephrine ([2]; 100 μg/ml, 3 mM norepinephrine): significantly inhibit

Compound: O=c1c2ccccc2oc2cc(OCC(O)CNC3CCCCC3)ccc12 (stereo not drawn) [3-[3-(Cyclohexylamino)-2-hydroxypropoxy] xanthone]
- effect on inhibiting collagen-induced platelet aggregation, compared with norathyrol [3]: more significant effect on inhibiting collagen-induced platelet aggregation than norathyrol

Compound: CC(=O)Oc1cc2oc3ccccc3c(=O)c2cc1OC(C)=O [2,3-dihydroxyxanthone diacetate, 2,3-Dihydroxyxanthone diacetate]
- effect on inhibiting collagen-induced platelet aggregation, compared with norathyrol [3]: more significant effect on inhibiting collagen-induced platelet aggregation than norathyrol

Compound: tripteroside acetate
- inhibition on platelet aggregation [4]: strong inhibition on platelet aggregation

Compound: CC(=O)Oc1cc2oc3c(OC(C)=O)c(OC(C)=O)ccc3c(=O)c2cc1OC(C)=O [3 '4 '6 '7-Tetrahydroxyxanthone acetate]
- effect on inhibiting collagen-induced platelet aggregation, compared with norathyrol [3]: more significant effect on inhibiting collagen-induced platelet aggregation than norathyrol

Compound: O=c1c2cc(O)c(O)cc2oc2cc(O)cc(O)c12 [norathyriol]
- inhibition of calcium influx in myocardiac cells [5]: inhibit the calcium influx
- relaxation of peripheral blood vessels [6]: strongly relax the peripheral blood vessels
- atrioventricular conduction of a rabbit [7]: significantly depress the atrioventricular conduction

Compound: O=c1c2cc(O)c(O)cc2oc2c(O)c(O)ccc12 [3,4,6,7-tetrahydroxyxanthone, 3,4,6,7-Tetrahydroxyxanthone]
- blood pressure of anesthetized rats [1]: reducing the blood pressure
- IC50 [8]: 35.4 µM

Compound: CC(=O)Oc1cc(OC(C)=O)c2c(=O)c3cc(OC(C)=O)c(OC(C)=O)cc3oc2c1 [norathyrol acetate]
- inhibition on platelet aggregation [4]: strong inhibition on platelet aggregation
